Results as given in patent US4590191A, “Soporific containing lorazepam” (Medichemie AG, priority 1984, dated 1986).
Read-outs that look alike come from different tables or passages of the source.

Tests used:
[1] = cited from earlier work
[2] = Acute oral toxicity (lethality) in mice; details: mouse, in vivo, po
Text: (§1) and of the combined preparation of 25 parts by weight
Doses in mg/kg Body Weight

white mice = assay: Acute oral toxicity (lethality) in mice; details: oral, mice
Text: as §1
Doses in mg/kg Body Weight

| SMILES | hypnotic or soporific effect (in words) ([1]; 1 mg) | side effects (in words) ([1]; 2 to 3 mg, in individual cases) | half-life (in words) ([1]; in vivo) | ratio between effect and tolerance (in words) ([1]; single dose of 1 mg) | side effects (in words) ([1]; somewhat higher doses, may occur in the next few days) | LD50 [2] [mg/kg] | DL 95 (white mice) [mg/kg] |
| --- | --- | --- | --- | --- | --- | --- | --- |
| O=C1Nc2ccc(Cl)cc2C(c2ccccc2Cl)=NC1O (stereo not shown) [lorazepam, 7-chlor-5-(2-chlorphenyl)-1,3-dihydro-3-hydroxy-2H-1,4 benzodiazepin-2-on] | often insufficient | subjectively unpleasant side effects can occur | medium half-life | especially good ratio between effect and tolerance | relatively strong side effects, such as muscle relaxation, ataxia and sedative after-effects | 3180 | – |
| CN(C)CCOC(c1ccccc1)c1ccccc1 [diphenhydramine, 2-(diphenyl-methoxy)-N,N-dimethyl ethanamine] | – | – | – | – | – | – | 645 |
